≈ marks a conversion by molar mass, not a printed value.

In one data set the test system is Staphylococcus aureus. As to the kind of experiment: Antibacterial activity against Staphylococcus aureus TCH1516 assessed as inhibition of bacterial growth incubated for 24 hrs by CLSI based broth microdilution method. The class given is functional.
The subject of data set [1] is Haemophilus influenzae. Nature of the data set: Antibacterial activity against Haemophilus influenzae 1 assessed as inhibition of bacterial growth incubated for 24 hrs by CLSI based broth microdilution method. Format: functional. (Broth dilution looks for growth in wells or tubes with falling amounts of substance.)
The next data set relates to Enterococcus faecium. Nature of the data set: Antibacterial activity against vancomycin-resistant Enterococcus faecium DAPS assessed as inhibition of bacterial growth incubated for 24 hrs by CLSI based broth microdilution method. Format: functional.
For data set [2], the system named is Escherichia coli. As to the kind of experiment: Antibacterial activity against Escherichia coli K1 RS218 assessed as inhibition of bacterial growth incubated for 24 hrs by CLSI based broth microdilution method. The class given is functional.
Another data set deals with Streptococcus. As to the kind of experiment: Antibacterial activity against Streptococcus M1T1 assessed as inhibition of bacterial growth incubated for 24 hrs by CLSI based broth microdilution method. Format: functional.
The next data set deals with Acinetobacter baumannii. As to the kind of experiment: Antibacterial activity against Acinetobacter baumannii 5075 assessed as inhibition of bacterial growth incubated for 24 hrs by CLSI based broth microdilution method. The class given is functional.
The subject of data set [3] is Haemophilus influenzae. Nature of the data set: Antibacterial activity against Haemophilus influenzae 2 assessed as inhibition of bacterial growth incubated for 24 hrs by CLSI based broth microdilution method. Format: functional.
For another data set, the system named is A549. As to the kind of experiment: Cytotoxicity against human A549 cells assessed as increase in LDH release at 16 microg/ml incubated for 24 hrs. Conditions: a549, 24 h, dose 16 µg/ml. The class given is toxicity, cell-based. In general terms: LDH leaks from cells whose membrane has failed.
Data set [4] deals with Escherichia coli. Nature of the data set: Antibacterial activity against Escherichia coli LptD4213 assessed as inhibition of bacterial growth incubated for 18 hrs by broth microdilution method. Format: functional.
The subject of data set [5] is Staphylococcus epidermidis. Nature of the data set: Antibacterial activity against methicillin-resistant Staphylococcus epidermidis assessed as inhibition of bacterial growth incubated for 24 hrs by CLSI based broth microdilution method. The class given is functional.

As for `C/C(=C\[C@H]1C=C[C@H]2CC[C@@H](C)[C@@H]2[C@H]1C(=O)c1[nH]c(Cl)c(Cl)c1Cl)C[C@@H](C)C(=O)O`, the MIC in the data set on Staphylococcus aureus is 2 µg/mL (≈ 4.36 µM); with Haemophilus influenzae [1] it was 1 µg/mL (≈ 2.18 µM); in the data set with Enterococcus faecium it was 4 µg/mL (≈ 8.72 µM); in the data set with Escherichia coli [2] it was > 32 µg/mL; in the data set on Streptococcus it was 4 µg/mL (≈ 8.72 µM); in the data set with Acinetobacter baumannii, > 32 µg/mL. Further, the MIC with Haemophilus influenzae [3] stood at 2 µg/mL (≈ 4.36 µM); with Escherichia coli [4], 4 µg/mL (≈ 8.72 µM); in data set [5], 4 µg/mL (≈ 8.72 µM). The Activity result in the data set with A549 is recorded as “Toxic”.

Regarding `C/C(=C\[C@H]1C=C[C@H]2CC[C@@H](C)[C@@H]2[C@H]1C(=O)c1cc(Cl)c(Cl)[nH]1)C[C@@H](C)C(=O)O`, the MIC in the data set with Staphylococcus aureus, with Enterococcus faecium, in the data set with Escherichia coli [2] and in the data set on Streptococcus was > 16 µg/mL each time.

These data come from ChEMBL document CHEMBL6078656, “Pattern-Based Genome Mining Guides Discovery of the Antibiotic Indanopyrrole A from a Marine Streptomycete” (J Nat Prod, 2024).
